Like-named read-outs stand apart in the source and are kept apart here.
Assays:
[1] = test system: IL-4 stimulated STAT6 phosphorylation in CD3+ T cells; experiment: Inhibition of IL-4 stimulated pSTAT6 in CD3+ T cells; assay type: cell-based; conditions: T-cell; CD3+ T cells in human PBMCs; read-out: pIC50 inhibition of IL-4 stimulated pSTAT6 (converted)
Experimental: The potency of the test compound for inhibition of interleukin-4 (IL-4) stimulated STAT6 phosphorylation was measured in CD3-positive (CD3+) T cells in human peripheral blood mononuclear cells (PBMCs) isolated from human whole blood (Stanford Blood Center) using flow cytometry. Because IL-4 signals through JAK, this assay provides a measure of JAK cellular potency.
CD3+ T cells were identified using a […] (PE) conjugated anti-CD3 antibody (Clone UCHT1, BD Biosciences), while an Alexa Fluor 647 conjugated anti-pSTAT6 antibody (pY641, Clone 18/P, BD Biosciences) was used to detect STAT6 phosphorylation.
Human peripheral blood mononuclear cells (PBMC) were isolated from human whole blood of healthy donors as in Assays 7 and 8. […] After incubation, cells were washed twice in FACS buffer before being analyzed using a LSRII flow cytometer (BD Biosciences).
To determine the inhibitory potency of the test compound in response to IL-4, the median fluorescent intensity (MFI) of pSTAT6 was measured in CD3+ T cells. IC50 values were determined from analysis of the inhibition curves of MFI vs compound concentration. Data are expressed as pIC50 (negative decadic logarithm IC50).

[2] = Pharmacokinetics in plasma and lung in mouse; assay type: in vivo; conditions: oral aspiration, ratio of lung exposure to plasma exposure
human eosinophils = experiment: IL-5 mediated eosinophil survival assay; assay type: cell-based; conditions: for IC50: Homo sapiens, Eosinophil, read-out: pIC50 IL-5 mediated eosinophil survival (converted)
Experimental: The potency of the test compound for IL-5 mediated eosinophil survival was measured in human eosinophils isolated from human whole blood (AllCells). Because IL-5 signals through JAK, this assay provides a measure of JAK cellular potency.
Human eosinophils were isolated from fresh human whole blood (AllCells) of healthy donors. Blood was mixed with 4.5% Dextran (Sigma-Aldrich) in a 0.9% sodium chloride solution (Sigma-Aldrich). Red blood cells were left to sediment for 35 minutes. The leukocyte rich upper layer was removed and layered over Ficoll-Paque (GE Healthcare) and centrifuged at 600 g for 30 minutes. The plasma and mononuclear cell layers were removed before the granulocyte layer was lysed with water to remove any contaminating red blood cells. Eosinophils were further purified using a human eosinophil isolation kit (Miltenyi Biotec). A fraction of the purified eosinophils were incubated with anti-CD16 FITC (Miltenyi Biotec) for 10 minutes at 4° C. in the dark. Purity was analyzed using a LSRII flow cytometer (BD Biosciences).
Cells were cultured in a 37° C., 5% CO2 humidified incubator in RPMI 1640 (Life Technologies) supplemented with 10% Heat Inactivated Fetal Bovine Serum (FBS, Life Technologies), 2 mM Glutamax (Life Technologies), 25 mM HEPES (Life Technologies) and 1× Pen/Strep (Life Technologies). Cells were seeded at 10,000 cells/well in media (50 μL). The plate was centrifuged at 300 g for 5 minutes and supernatants removed. Compounds were serially diluted in DMSO and then diluted another 500-fold to a 2× final assay concentration in media. […]
After cytokine stimulation, cells were centrifuged at 300 g for 5 min and washed twice with cold DPBS (Life Technologies). To access viability and apoptosis, cells were incubated with Propidium Iodide (Thermo Fisher Scientific) and APC Annexin V (BD Biosciences) and analyzed using a LSRII flow cytometer (BD Biosciences). IC50 values were determined from analysis of the viability curves of percent cell viability vs compound concentration. Data are expressed as pIC50 (negative decadic logarithm IC50) values.

SMILES | IC50 [1] [nM] | Lung to Plasma ratio Assay 3 [2] | inhibition of IL-5 mediated human eosinophil survival (in words) (human eosinophils) | IC50 (human eosinophils; in the presence of 10 pg/ml IL-5) [nM] | IC50 (human eosinophils; in the presence of 1 ng/ml IL-5) [nM]
CCCN1Cc2[nH]c(-c3n[nH]c4cc(-c5cc(F)c(O)cc5CC)ccc34)nc2C[C@H]1C(=O)N1C[C@@H]2C[C@H]1CN2C [Example 1, ((S)-2-(6-(2-ethyl-5-fluoro-4-hydroxyphenyl)-1H-indazol-3-yl)-5-propyl-4,5,6,7-tetrahydro-3H-imidazo[4,5-c]pyridin-6-yl)((1S,4S)-5-methyl-2,5-diazabicyclo-[2.2.1]heptan-2-yl)methanone] | 20 | A (A denotes a ratio 100-200) | potently inhibit | 50.1 | 2000
CCc1cc(O)c(F)cc1-c1ccc2c(-c3nc4c([nH]3)CN(C(C)C)[C@H](C(=O)N3CC[C@H](N(C)C)C3)C4)n[nH]c2c1 [Example 3] | 10 | B (B denotes a ratio between 50 and 100) |  |  | 
